According to US11919901B2 (Syndax Pharmaceuticals, Inc., priority 2021, dated 2024):

Molecular target: Menin-MLL (Homo sapiens (Human), UniProt O00255)
Experiment: Determination of binding constants (Ki) to Menin-MLL (HTRF)
Details: HTRF, 0.25 nM H-FL-Menin, 3.2 nM FITC-MLL-4-43, 24 hr incubation; for Ki: read-out: Menin-MLL Ki HTRF Assay: Ki

Sequence of Menin-MLL (O00255 whole entry): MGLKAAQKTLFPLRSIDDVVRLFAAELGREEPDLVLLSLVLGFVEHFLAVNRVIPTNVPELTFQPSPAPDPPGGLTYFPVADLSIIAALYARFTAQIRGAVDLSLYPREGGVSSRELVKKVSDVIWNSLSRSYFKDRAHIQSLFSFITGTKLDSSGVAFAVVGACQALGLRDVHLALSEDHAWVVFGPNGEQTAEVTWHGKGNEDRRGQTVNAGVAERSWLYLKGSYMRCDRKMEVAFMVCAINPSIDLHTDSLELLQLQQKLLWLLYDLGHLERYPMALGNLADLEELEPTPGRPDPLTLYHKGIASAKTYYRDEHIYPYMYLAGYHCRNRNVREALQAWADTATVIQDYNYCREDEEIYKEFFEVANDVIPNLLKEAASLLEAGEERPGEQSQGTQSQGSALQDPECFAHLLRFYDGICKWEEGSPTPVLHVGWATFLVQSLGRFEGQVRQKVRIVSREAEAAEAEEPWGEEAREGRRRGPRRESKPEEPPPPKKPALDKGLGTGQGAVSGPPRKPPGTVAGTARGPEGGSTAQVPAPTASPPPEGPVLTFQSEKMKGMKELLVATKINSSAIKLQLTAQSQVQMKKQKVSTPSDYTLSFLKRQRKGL

| EC50 | SMILES | Ki |
| --- | --- | --- |
|  | CCN(C)S(=O)(=O)N[C@@H]1CC[C@@H](CN2CCC3(CC2)CN(c2ncncc2Oc2ccc(F)cc2C(=O)N(C(C)C)[C@H]2CCOC2)C3)OC1 [Compound 179, 2-((4-(7-(((2S,5R)-5-((N-Ethyl-N-methylsulfamoyl)amino)tetrahydro-2H-pyran-2-yl)methyl)-2,7-diazaspiro[3.5]nonan-2-yl)pyrimidin-5-yl)oxy)-5-fluoro-N-isopropyl-N-((S)-tetrahydrofuran-3-yl)benzamide] | < 1 nM |
|  | CCNS(=O)(=O)N[C@@H]1CC[C@@H](CN2CCC3(CC2)CN(c2ncncc2Oc2ccc(F)cc2C(=O)N(C(C)C)[C@H]2CCOC2)C3)OC1 [Compound 180, 2-((4-(7-(((2S,5R)-5-((N-Ethylsulfamoyl)amino)tetrahydro-2H-pyran-2-yl)methyl)-2,7-diazaspiro[3.5]nonan-2-yl)pyrimidin-5-yl)oxy)-5-fluoro-N-isopropyl-N-((S)-tetrahydrofuran-3-yl)benzamide] | < 1 nM |
|  | CC(C)N(CCC#N)C(=O)c1cc(F)ccc1Oc1cncnc1N1CC2(CCN(C[C@@H]3CC[C@@H](NS(=O)(=O)N4CCC4)CO3)CC2)C1 [Compound 184, 2-((4-(7-(((2S,5R)-5-(Azetidine-1-sulfonamido)tetrahydro-2H-pyran-2-yl)methyl)-2,7-diazaspiro[3.5]nonan-2-yl)pyrimidin-5-yl)oxy)-N-(2-cyanoethyl)-5-fluoro-N-isopropylbenzamide] | < 1 nM |
|  | CCS(=O)(=O)N[C@@H]1CC[C@@H](CN2CCC3(CC2)CN(c2ncnnc2Oc2ccc(F)cc2C(=O)N(CC(F)F)C(C)C)C3)OC1 [Compound 185, N-(2,2-Difluoroethyl)-2-((5-(7-(((2S,5R)-5-(ethylsulfonamido)tetrahydro-2H-pyran-2-yl)methyl)-2,7-diazaspiro[3.5]nonan-2-yl)-1,2,4-triazin-6-yl)oxy)-5-fluoro-N-isopropylbenzamide] | < 1 nM |
|  | CC(C)N(CC(F)F)C(=O)c1cc(F)ccc1Oc1nncnc1N1CC2(CCN(C[C@@H]3CC[C@@H](NS(=O)(=O)C4CC4)CO3)CC2)C1 [Compound 186, 2-((5-(7-(((2S,5R)-5-(Cyclopropanesulfonamido)tetrahydro-2H-pyran-2-yl)methyl)-2,7-diazaspiro[3.5]nonan-2-yl)-1,2,4-triazin-6-yl)oxy)-N-(2,2-difluoroethyl)-5-fluoro-N-isopropylbenzamide] | < 1 nM |
|  | CC(C)N(CC(F)F)C(=O)c1cc(F)ccc1Oc1nncnc1N1CC2(CCN(C[C@@H]3CC[C@@H](NS(=O)(=O)c4cnn(C)c4)CO3)CC2)C1 [Compound 187, N-(2,2-Difluoroethyl)-5-fluoro-N-isopropyl-2-((5-(7-(((2S,5R)-5-((1-methyl-1H-pyrazole)-4-sulfonamido)tetrahydro-2H-pyran-2-yl)methyl)-2,7-diazaspiro[3.5]nonan-2-yl)-1,2,4-triazin-6-yl)oxy)benzamide] | < 1 nM |
|  | CCNS(=O)(=O)N[C@@H]1CC[C@@H](CN2CCC3(CC2)CN(c2ncnnc2Oc2ccc(F)cc2C(=O)N(CC(F)F)C(C)C)C3)OC1 [Compound 188, N-(2,2-Difluoroethyl)-2-((5-(7-(((2S,5R)-5-((N-ethylsulfamoyl)amino)tetrahydro-2H-pyran-2-yl)methyl)-2,7-diazaspiro[3.5]nonan-2-yl)-1,2,4-triazin-6-yl)oxy)-5-fluoro-N-isopropylbenzamide] | < 1 nM |
|  | CCS(=O)(=O)N[C@@H]1CC[C@@H](CN2CCC3(CC2)CN(c2ncnnc2Oc2ccc(F)cc2C(=O)N(CC(F)(F)F)C(C)C)C3)OC1 [Compound 190, 2-((5-(7-(((2S,5R)-5-(Ethylsulfonamido)tetrahydro-2H-pyran-2-yl)methyl)-2,7-diazaspiro[3.5]nonan-2-yl)-1,2,4-triazin-6-yl)oxy)-5-fluoro-N-isopropyl-N-(2,2,2-trifluoroethyl)benzamide] | < 1 nM |
|  | CC(C)N(CC(F)(F)F)C(=O)c1cc(F)ccc1Oc1nncnc1N1CC2(CCN(C[C@@H]3CC[C@@H](NS(=O)(=O)C4CC4)CO3)CC2)C1 [Compound 191, 2-((5-(7-(((2S,5R)-5-(Cyclopropanesulfonamido)tetrahydro-2H-pyran-2-yl)methyl)-2,7-diazaspiro[3.5]nonan-2-yl)-1,2,4-triazin-6-yl)oxy)-5-fluoro-N-isopropyl-N-(2,2,2-trifluoroethyl)benzamide] | < 1 nM |
|  | CC(C)N(CC(F)(F)F)C(=O)c1cc(F)ccc1Oc1nncnc1N1CC2(CCN(C[C@@H]3CC[C@@H](NS(=O)(=O)c4cnn(C)c4)CO3)CC2)C1 [Compound 192, 5-Fluoro-N-isopropyl-2-((5-(7-(((2R,5S)-5-((1-methyl-1H-pyrazole)-4-sulfonamido)tetrahydro-2H-pyran-2-yl)methyl)-2,7-diazaspiro[3.5]nonan-2-yl)-1,2,4-triazin-6-yl)oxy)-N-(2,2,2-trifluoroethyl)benzamide] | < 1 nM |
|  | CCS(=O)(=O)N[C@@H]1CC[C@@H](CN2CCC3(CC2)CN(c2ncnnc2Oc2ccc(F)cc2C(=O)N(C(C)C)C(C)C)C3)OC1 [Compound 195, 2-((5-(7-(((2S,5R)-5-(Ethylsulfonamido)tetrahydro-2H-pyran-2-yl)methyl)-2,7-diazaspiro[3.5]nonan-2-yl)-1,2,4-triazin-6-yl)oxy)-5-fluoro-N,N-diisopropylbenzamide] | < 1 nM |
|  | CC(C)N(C(=O)c1cc(F)ccc1Oc1nncnc1N1CC2(CCN(C[C@@H]3CC[C@@H](NS(=O)(=O)c4cnn(C)c4)CO3)CC2)C1)C(C)C [Compound 197, 5-Fluoro-N,N-diisopropyl-2-((5-(7-(((2S,5R)-5-((1-methyl-1H-pyrazole)-4-sulfonamido)tetrahydro-2H-pyran-2-yl)methyl)-2,7-diazaspiro[3.5]nonan-2-yl)-1,2,4-triazin-6-yl)oxy)benzamide] | < 1 nM |
|  | CC(C)N(C(=O)c1cc(F)ccc1Oc1cncnc1N1CC2(CCN(C[C@@H]3CC[C@@H](NS(=O)(=O)N4CCC[C@H]4C)CO3)CC2)C1)[C@@H]1CCOC1 [Compound 204, 5-Fluoro-N-isopropyl-2-((4-(7-(((2S,5R)-5-(((R)-2-methylpyrrolidine)-1-sulfonamido)tetrahydro-2H-pyran-2-yl)methyl)-2,7-diazaspiro[3.5]nonan-2-yl)pyrimidin-5-yl)oxy)-N-((R)-tetrahydrofuran-3-yl)benzamide] | < 1 nM |
|  | CC(C)N(C(=O)c1cc(F)ccc1Oc1cncnc1N1CC2(CCN(C[C@@H]3CC[C@@H](NS(=O)(=O)N4CCC[C@@H]4C)CO3)CC2)C1)[C@@H]1CCOC1 [Compound 205, 5-Fluoro-N-isopropyl-2-((4-(7-(((2S,5R)-5-(((S)-2-methylpyrrolidine)-1-sulfonamido)tetrahydro-2H-pyran-2-yl)methyl)-2,7-diazaspiro[3.5]nonan-2-yl)pyrimidin-5-yl)oxy)-N-((R)-tetrahydrofuran-3-yl)benzamide] | < 1 nM |
|  | CC(C)N(C(=O)c1cc(F)ccc1Oc1cncnc1N1CC2(CCN(C[C@@H]3CC[C@@H](NS(=O)(=O)N4CCC[C@@H]4C)CO3)CC2)C1)C1CCOC1 (stereo partly drawn) [Compound 206, 5-Fluoro-N-isopropyl-2-((4-(7-(((2S,5R)-5-(((S)-2-methylpyrrolidine)-1-sulfonamido)tetrahydro-2H-pyran-2-yl)methyl)-2,7-diazaspiro[3.5]nonan-2-yl)pyrimidin-5-yl)oxy)-N-((S)-tetrahydrofuran-3-yl)benzamide] | < 1 nM |
|  | CC(C)N(C(=O)c1cc(F)ccc1Oc1cncnc1N1CC2(CCN(C[C@@H]3CC[C@@H](NS(=O)(=O)N4CCC[C@H]4C)CO3)CC2)C1)C1CCOC1 (stereo partly drawn) [Compound 207, 5-Fluoro-N-isopropyl-2-((4-(7-(((2S,5R)-5-(((R)-2-methylpyrrolidine)-1-sulfonamido)tetrahydro-2H-pyran-2-yl)methyl)-2,7-diazaspiro[3.5]nonan-2-yl)pyrimidin-5-yl)oxy)-N-((S)-tetrahydrofuran-3-yl)benzamide] | < 1 nM |
|  | COC[C@H]1CCCN1S(=O)(=O)N[C@@H]1CC[C@@H](CN2CCC3(CC2)CN(c2ncncc2Oc2ccc(F)cc2C(=O)N(C(C)C)C(C)C)C3)OC1 [Compound 212, 5-Fluoro-N,N-diisopropyl-2-((4-(7-(((2S,5R)-5-(((R)-2-(methoxymethyl)pyrrolidine)-1-sulfonamido)tetrahydro-2H-pyran-2-yl)methyl)-2,7-diazaspiro[3.5]nonan-2-yl)pyrimidin-5-yl)oxy)benzamide] | < 1 nM |
|  | COC[C@@H]1CCCN1S(=O)(=O)N[C@@H]1CC[C@@H](CN2CCC3(CC2)CN(c2ncncc2Oc2ccc(F)cc2C(=O)N(C(C)C)C(C)C)C3)OC1 [Compound 213, 5-Fluoro-N,N-diisopropyl-2-((4-(7-(((2S,5R)-5-(((S)-2-(methoxymethyl)pyrrolidine)-1-sulfonamido)tetrahydro-2H-pyran-2-yl)methyl)-2,7-diazaspiro[3.5]nonan-2-yl)pyrimidin-5-yl)oxy)benzamide] | < 1 nM |
| 50 to 100 nM | CCN(C(=O)c1cc(F)ccc1Oc1cncnc1N1CC2(CCN(C[C@@H]3CC[C@@H](NC(=O)Nc4ccccc4)CO3)CC2)C1)C(C)C [Compound 215, N-Ethyl-5-fluoro-N-isopropyl-2-((4-(7-(((2S,5R)-5-(3-phenylureido)tetrahydro-2H-pyran-2-yl)methyl)-2,7-diazaspiro[3.5]nonan-2-yl)pyrimidin-5-yl)oxy)benzamide] |  |
|  | CCN(C(=O)c1cc(F)ccc1Oc1cnc(C)nc1N1CC2(CCN(C[C@@H]3CC[C@@H](NS(=O)(=O)CC)CO3)CC2)C1)C(C)C [Compound 216, N-Ethyl-2-((4-(7-(((2S,5R)-5-(ethylsulfonamido)tetrahydro-2H-pyran-2-yl)methyl)-2,7-diazaspiro[3.5]nonan-2-yl)-2-methylpyrimidin-5-yl)oxy)-5-fluoro-N-isopropylbenzamide] | 1 to 1.5 nM |
|  | C=CS(=O)(=O)N[C@@H]1CC[C@@H](CN2CCC3(CC2)CN(c2ncncc2Oc2ccc(F)cc2C(=O)N(CC)C(C)C)C3)OC1 [Compound 219, N-Ethyl-5-fluoro-N-isopropyl-2-((4-(7-(((2S,5R)-5-(vinylsulfonamido)tetrahydro-2H-pyran-2-yl)methyl)-2,7-diazaspiro[3.5]nonan-2-yl)pyrimidin-5-yl)oxy)benzamide] | < 1 nM |
